These results are taken from US6737421B1, “Cyclo-alkyl substituted benzimidazoles and their use as PARP inhibitors” (Abbott GmbH & Co. KG, priority 1999, dated 2004).

A short description of data set [1]: Determination of the solubility in water. In kind it is physicochemical. To be noted: adjusted to pH 5-6 with sodium acetate solution, final dimethyl sulfoxide ≦1% if not a water-soluble salt. As for the experimental part: EXAMPLE B Determination of the Solubility in Water […] If the measured substance is not in the form of a water-soluble salt, it was dissolved in the minimum amount of dimethyl sulfoxide and then diluted with water (final dimethyl sulfoxide concentration ≦1%), after which the pH was again adjusted.

For data set [2] the following is noted: literature report; cited from earlier work.

For the compound `COc1ccc(-c2nc3cccc(C(N)=O)c3[nH]2)cc1` [NU 1076], the solubility in water in data set [1] is < 0.01%. On to `NC(=O)c1cccc(N)c1` [3-aminobenzamide], for which the “effect in a model of circulatory failure” value in data set [2] was “protective effects”.
